Laboratory results reported in ChEMBL document CHEMBL1201862, “PubChem BioAssay data set” (2004).
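In this assay, cells in 96-well plates receive the compound at five concentrations for 48 hours. Endpoints are linearly interpolated between the surrounding concentrations. Here, GI50 denotes the concentration required for 50% inhibition of growth.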 Active and inactive are the calls of the source. Rule as the data show it: active = GI50 up to about 1.1 µM and inactive = higher.

Tests used:
Assay in all cases: growth of human tumour cells (NCI), 48 h
HCC 2998 = tested on: HCC 2998
CAKI-1 = tested on: CAKI-1
TK-10 = tested on: TK-10
MOLT-4 = tested on: MOLT-4
OVCAR-3 = tested on: OVCAR-3
HOP-62 = tested on: HOP-62
HT-29 = tested on: HT-29
NCI-H23 = tested on: NCI-H23
OVCAR-5 = tested on: OVCAR-5
786-0 = tested on: 786-0
Malme-3M = tested on: Malme-3M
UACC-257 = tested on: UACC-257
NCI-H460 = tested on: NCI-H460
ACHN = tested on: ACHN
SF-295 = tested on: SF-295
KM12 = tested on: KM12

Measured: GI50

Clc1cccc(C2N3CCCCC3[C@@H]3c4[nH]c5ccccc5c4CCN23)c1 (some centres undefined)
inactive: HCC 2998 31.9 µM | CAKI-1 45 µM | TK-10 40.8 µM | MOLT-4 23.1 µM | OVCAR-3 34.8 µM | HOP-62 46.9 µM | HT-29 18.2 µM | NCI-H23 22 µM | OVCAR-5 21 µM | 786-0 32.6 µM | Malme-3M 18.3 µM | UACC-257 30.5 µM | NCI-H460 22.7 µM | ACHN 24.2 µM | SF-295 51.1 µM

O=C(Nc1ccc(Cl)cc1Cl)C1C(=O)C(=O)N(c2ccc(Cl)cc2Cl)C1=O (centres undefined)
inactive: HCC 2998 > 100 µM | CAKI-1 > 100 µM | TK-10 > 100 µM | KM12 > 100 µM | OVCAR-3 38.5 µM | HOP-62 > 100 µM | HT-29 > 100 µM | NCI-H23 > 100 µM | OVCAR-5 > 100 µM | 786-0 > 100 µM | Malme-3M > 100 µM | UACC-257 > 100 µM | NCI-H460 > 100 µM | ACHN > 100 µM

COC(=O)C1C2C=CC(C2)N1[C@@H](C)c1ccccc1 (some centres undefined)
inactive: HCC 2998 > 100 µM | CAKI-1 > 100 µM | TK-10 > 100 µM | KM12 > 100 µM | OVCAR-3 > 100 µM | HOP-62 > 100 µM | HT-29 > 100 µM | NCI-H23 > 100 µM | OVCAR-5 > 100 µM | 786-0 > 100 µM | Malme-3M > 100 µM | UACC-257 > 100 µM | NCI-H460 > 100 µM | ACHN > 100 µM | SF-295 > 100 µM

O=C1NC(=O)C2C(=O)NC(=O)C1C2Cc1ccco1 (centres undefined)
inactive: HCC 2998 > 100 µM | CAKI-1 > 100 µM | TK-10 > 100 µM | KM12 > 100 µM | MOLT-4 > 100 µM | OVCAR-3 > 100 µM | HT-29 > 100 µM | NCI-H23 > 100 µM | OVCAR-5 > 100 µM | 786-0 > 100 µM | Malme-3M > 100 µM | UACC-257 > 100 µM | NCI-H460 > 100 µM | ACHN > 100 µM | SF-295 > 100 µM

N#CCCN(CCC#N)C(=O)c1cccc(C(=O)N(CCC#N)CCC#N)c1
inactive: HCC 2998 > 85.1 µM | CAKI-1 > 100 µM | KM12 > 93.3 µM | MOLT-4 > 100 µM | OVCAR-3 > 100 µM | HOP-62 > 100 µM | HT-29 19.1 µM | NCI-H23 > 41.9 µM | OVCAR-5 > 100 µM | 786-0 > 100 µM | Malme-3M 72.1 µM | UACC-257 > 100 µM | NCI-H460 > 47.5 µM | ACHN > 100 µM | SF-295 > 77.8 µM
